Measured values as given in patent publication US20030181436A1, “Treatment for AIDS, HIV, and other related diseases and compounds for use therewith” (priority 2001, published 2003).

Columns and labels:
Type in all cases: cell-based
Conditions in all cases: exp 2
[1] = tested on: TNFα induced ACH-2 cells (HIV IIIB provirus); assay: ACH-2 latent infection assay, supernatant reverse transcriptase activity; set-up: % VC (percent of virus control): unit not given here
Protocol: (§1) U1 and ACH-2 cells were obtained from the AIDS Research and Reference Reagent Program and maintained under standard culture conditions in RPMI 1640 supplemented with 10% fetal bovine serum (heat inactivated), supplemented with 2 mM […], 100U/ml penicillin and 100 μg/ml, streptomycin. U1 cells were derived from the histocytic leukemia cell line U937, and contain a single integrated copy (HIV IIIB) […] a cytokine and/or phorbol inducible provirus. ACH-2 cells are derived from the A3.01 T lymphoblastic cell line, and contain 2 copies of the HIV IIIB provirus, however only one is cytokine and/or phorbol inducible. Cultures were maintained in such a way as to ensure exponential growth of the populations. At the time of the assay, cells were collected by centrifugation and counted by hemacytometer. If cell viability by Trypan Blue dye exclusion was less than 70% the assay was terminated. The cells were adjusted to 5×10^4 cells/mL and 100 μL, placed in 96 well plates with 100 μL media containing a final concentration of […] TNFα and the test compound. Cultures were incubated for 3 days and supernatants harvested. Compound toxicity was determined by MTS dye reduction. Virus expression was measured by supernatant reverse transcriptasc activity.
(§2) Reverse transcriptase activity was measured in cell-free supernatants. Tritiated thymidine triphosphate (NEN) (TTP) was resuspended in distilled H2O at 5 Ci/mL. Poly rA and oligo dT were prepared as a stock solution which was kept at −20° C. The RT reaction buffer was prepared fresh on a daily basis and consists of 125 μL 1.0 M EGTA, 125 μL dH2O, 110 μL 10% SDS, 50 μL 1.0 M Tris (pH 7.4), 50 μL, 1.0 M DTT, and 40 μL 1.0 M MgCl2. These three solutions were mixed together in a ratio of 2 parts TTP, 1 part poly rA:oligo dT, and 1 part reaction buffer. Ten microliters of this reaction mixture was placed in a round bottom microtiter plate and 15 μL of virus containing supernatant was added and mixed. The plate was incubated at 37° C. in a water bath with a solid support to prevent submersion of the plate and incubated for 60 minutes. Following reaction, the reaction volume was spotted onto pieces of DE81 paper, washed 5 times for 5 minutes each in a 5% sodium phosphate buffer, 2 times for 1 minute each in distilled water, 2 times for 1 minute each in 70% ethanol, and then dried. Opti-Fluor O was added to each sample and incorporated radioactivity was quantitated utilizing a Wallac 1450 Microbetaplus liquid scintillation counter.

[2] = tested on: TNFα induced U1 cells (HIV IIIB provirus); assay: U1 latent infection assay, supernatant reverse transcriptase activity
Protocol: as §1, §2

U1 cells = assay: U1 assay, compound toxicity by MTS dye reduction
Protocol: At assay termination the assay plates were stained with the soluble tetrazolium-based dye MTS (CellTiter® Reagent, Promega) to determined cell viability and quantify compound toxicity. […] At termination of the assay 20 μL of MTS reagent was added per well. The wells were incubated for 4 h at 37° C., 5% CO2. Adhesive plate scalers were used in place of the lids, the sealed plate was inverted several times to mix the soluble formazan product and the plate was read spectrophotometrically at 490 nm with a 650 nm reference wavelength on a Molecular Devices Vmax plate reader.
as §1

## Potassium Iodiscorbate [Compound K]
[1]; 0.00063 uM
  % VC (percent of virus control): 114.4
  RT ACTIVITY (cpm) MEAN: 22470 cpm
[1]; 0.002 uM
  % VC (percent of virus control): 98.0
  RT ACTIVITY (cpm) MEAN: 19246 cpm
[1]; 0.00625 uM
  % VC (percent of virus control): 105.2
  RT ACTIVITY (cpm) MEAN: 20672 cpm
[1]; 0.02 uM
  % VC (percent of virus control): 125.7
  RT ACTIVITY (cpm) MEAN: 24682 cpm
[1]; 0.0625 uM
  % VC (percent of virus control): 119.1
  RT ACTIVITY (cpm) MEAN: 23403 cpm
[1]; 0.2 uM
  % VC (percent of virus control): 115.0
  RT ACTIVITY (cpm) MEAN: 22593 cpm
[1]; 0.625 uM
  % VC (percent of virus control): 97.7
  RT ACTIVITY (cpm) MEAN: 19189 cpm
[1]; 2 uM
  % VC (percent of virus control): 93.6
  RT ACTIVITY (cpm) MEAN: 18381 cpm
[1]; 6.25 uM
  % VC (percent of virus control): 32.7
  RT ACTIVITY (cpm) MEAN: 6432 cpm
[1]; 20 uM
  % VC (percent of virus control): 15.3
  RT ACTIVITY (cpm) MEAN: 3011 cpm
[1]; 62.5 uM
  % VC (percent of virus control): 0.58
  RT ACTIVITY (cpm) MEAN: 113 cpm
[1]; 200 uM
  % VC (percent of virus control): 0.55
  RT ACTIVITY (cpm) MEAN: 108 cpm
[2]; 0.00063 μM
  % VC: 112.6%
  RT ACTIVITY (cpm) MEAN: 3019 cpm
[2]; 0.002 μM
  % VC: 118.4%
  RT ACTIVITY (cpm) MEAN: 3174 cpm
[2]; 0.00625 μM
  % VC: 111.5%
  RT ACTIVITY (cpm) MEAN: 2989 cpm
[2]; 0.02 μM
  % VC: 98.4%
  RT ACTIVITY (cpm) MEAN: 2640 cpm
[2]; 0.0625 μM
  % VC: 107.1%
  RT ACTIVITY (cpm) MEAN: 2872 cpm
[2]; 0.2 μM
  % VC: 110.0%
  RT ACTIVITY (cpm) MEAN: 2949 cpm
[2]; 0.625 μM
  % VC: 68.1%
  RT ACTIVITY (cpm) MEAN: 1826 cpm
[2]; 2 μM
  % VC: 81.7%
  RT ACTIVITY (cpm) MEAN: 2191 cpm
[2]; 6.25 μM
  % VC: 73.2%
  RT ACTIVITY (cpm) MEAN: 1962 cpm
[2]; 20 μM
  % VC: 45.3%
  RT ACTIVITY (cpm) MEAN: 1216 cpm
[2]; 62.5 μM
  % VC: 29.07%
  RT ACTIVITY (cpm) MEAN: 779 cpm
[2]; 200 μM
  % VC: 17.50%
  RT ACTIVITY (cpm) MEAN: 469 cpm
U1 cells; 0.00063 μM
  % CC: 118.9%
  TOXICITY VALUES (MTS) MEAN: 1.546 O. D.
U1 cells; 0.002 μM
  % CC: 119.4%
  TOXICITY VALUES (MTS) MEAN: 1.553 O. D.
U1 cells; 0.00625 μM
  % CC: 97.8%
  TOXICITY VALUES (MTS) MEAN: 1.271 O. D.
U1 cells; 0.0625 μM
  % CC: 94.0%
  TOXICITY VALUES (MTS) MEAN: 1.222 O. D.
U1 cells; 0.2 μM [c7]
  % CC: 84.8%
  TOXICITY VALUES (MTS) MEAN: 1.103 O. D.
U1 cells; 0.2 μM [c9]
  % CC: 101.5%
  TOXICITY VALUES (MTS) MEAN: 1.320 O. D.
U1 cells; 0.625 μM
  % CC: 93.4%
  TOXICITY VALUES (MTS) MEAN: 1.214 O. D.
U1 cells; 2 μM
  % CC: 89.1%
  TOXICITY VALUES (MTS) MEAN: 1.158 O. D.
U1 cells; 6.25 μM
  % CC: 83.3%
  TOXICITY VALUES (MTS) MEAN: 1.083 O. D.
U1 cells; 20 μM
  % CC: 70.3%
  TOXICITY VALUES (MTS) MEAN: 0.913 O. D.
U1 cells; 62.5 μM
  % CC: 80.8%
  TOXICITY VALUES (MTS) MEAN: 1.050 O. D.
U1 cells; 200 μM
  % CC: 26.3%
  TOXICITY VALUES (MTS) MEAN: 0.341 O. D.
